Measurements reported in patent US12607637B2, “Super-resolution morphology-correlated detection of labile zinc” (University of Cincinnati, priority 2020, dated 2026).
Several values for one entry are separate records, joined by “and”; a condition that tells them apart may be missing. Equal entries are not always repeated.

Experiments:
HeLa cells [1] = assay: Photostability in cells under continuous laser stimulation; format: cell-based
Procedure: At the same time, because NapBu-BPEA's optical stability is an important factor in super-resolution imaging, a long-term continuous laser (300 s) stimulation of cells was carried out, capturing images every 20 s in order to monitor the photostability of NapBu-BPEA and MTDR in cells (FIG. 4(f), (g)). […] These characteristics enabled NapBu-BPEA to dynamically monitor cellular ultrastructures with long-term super-resolution imaging.

[2] = Zn^2+ fluorescence titration, Job's plot, detection limit, binding constant, metal ion selectivity and TPEN reversibility in HEPES/DMSO
Procedure: (§1) The stock solution of NapBu-BPEA was prepared with DMSO of HPLC pure grade to make the concentration as 10 mM, and frozen after packing at −20° C. The sample solutions were diluted to the final concentration as 10 μM with 3 mL HEPES buffer (50 mM, 100 mM KNO3, 10% DMSO, pH 7.2) in quartz cuvettes with 1 cm path lengths. The fluorescent spectra were recorded upon the excitation of 450 nm.
(§2) The Zn^2+ titration spectra were recorded by adding in aliquots Zn^2+ solution from 0 to 15 μM into the NapBu-BPEA solution (10 μM). The detection limit of NapBu-BPEA was determined by collecting the fluorescence spectra of NapBu-BPEA for 6 times to obtain the background noise (a). The probe's fluorescent sensing selectivity of NapBu-BPEA was recorded after adding metal cation (1000 eq K^+, Na^+, Ca^2+, Mg^2+; 1 eq Cd^2+, Ni^2+, Cr^3+, Pb^2+, Al^3+, Co^2+, Fe^2+, Fe^3+, Ba^2+, Mn^2+) to the NapBu-BPEA solution. The fluorescence quantum yields were determined by using Ru(bpy)3^2+ (Φ=0.04) in DMSO/HEPES (v:v, 1:9)(λex=450 nm) as the reference. To determine binding constant, various amounts of Zn(NO3)2 (0˜9 mM) were added to NapBu-BPEA solution buffered with DMSO/HEPES (50 mM, pH 7.21, 100 mM KNO3) containing 10 mM EGTA. The pH stability was measured by recording the fluorescence spectra of NapBu-BPEA solution in the presence of Zn^2+ at different pH adjusted with KOH and HCl.

[3] = Spectroscopic study: fluorescence quantum yield and pH stability in DMSO/HEPES; format: physicochemical; settings: probe bound to Zn^2+, pH titration
Procedure: as §1, §2

HeLa cells [4] = assay: Cell viability determination via WST (LDH release) assay; format: cell-based; settings: 20 μM, 24 h
Procedure: The suspension of HeLa cells diluted with 50 μL DMEM was plated into 96-well plate. The inoculated cells were pre-cultured overnight in 96-well plate and replaced with a new 50 μL DMEM. 50 μL DMEM containing different concentrations of NapBu-BPEA was added and cultured in CO2 incubator at 37° C. for 24 h. After 10 μL lysis buffer was added to the high contrast wells, 30 min was cultured in the CO2 incubator at 37° C. After 100 μL working solution was added to each well, it was cultured for 0.5 h under dark and room temperature. After 50 μL stop solution was added to each well, the absorbance of 490 nm was determined immediately by a microplate reader (Thermomax, Molecular Devices).

HeLa cells [5] = assay: SIM imaging of intracellular labile Zn^2+ on ZnPT loading and TPEN scavenging; format: cell-based
Procedure: In view of these promising results, a 1:2 mixture of ZnCl2 and pyrithione sodium salt, a cell-permeable Zn^2+ carrier (ZnPT) to transport exogenous Zn^2+ to cells, and a cell-permeable Zn^2+-chelating agent, TPEN, were used to evaluate the reversibility of fluorescence response to Zn^2+ in living cells according to methods described elsewhere. To determine the entry time of exogenous Zn^2+ into cells, NapBu-BPEA was incubated and an initial image was captured, after which 50 μM ZnPT (50 μM ZnCl2/100 μM pyrithione sodium salt) was used to replace the culture medium in dye-free and serum-free DMEM. […] The variance may be attributed to the difference in lipophilicity.
Next, NapBu-BPEA was investigated for its intracellular labile Zn^2+ imaging ability. Imaging experiments were performed in HeLa cells upon exogenous Zn^2+ loading via incubation with zinc pyrithione cmplex (ZnPT), a cell-permeable Zn^2+ carrier.
Intracellular labile Zn^2+ enhancement processes were tracked by recording SIM images every 2 min. […] While not desiring to be bound by theory, it is proposed that the butyl tail of NapBu-BPEA is responsible for the retained multiple organelle accumulation behavior of NapBu-BPEA upon Zn^2+ binding.

HeLa cells [6] = assay: SIM imaging of labile Zn^2+ during CCCP- or EBSS-induced autophagy; format: cell-based
Source text: The SIM images were acquired using a Nikon N-SIM system. The blue imaging channel for Hoechst 33258 with emission bandwidth at 420-495 nm upon excitation at 405 nm, the green imaging channel for NapBu-BPEA with emission bandwidth at 500-550 nm upon excitation at 488 nm, the red imaging channel for ER-Tracker Red, LysoTracker Red and DAPRed with emission bandwidth at 570-640 nm upon excitation at 561 nm, the magenta imaging channel for MitoTracker Deep Red with emission bandwidth at 660-735 nm upon excitation at 640 nm were utilized. The imaging data analysis and thermal map construction were performed via analysis with ImageJ.
The intracellular Zn^2+ level in autophagy was imaged in HeLa cells. Prior to CCCP (10 μM, 24 h) or EBSS treatment ([…]), the cells were stained with DAPRed (1 μM, 30 min). The cells were finally stained by NapBu-BPEA (10 μM, 1 h) before SIM imaging.

ATG13 KO HeLa cells = assay: SIM imaging of labile Zn^2+ after CCCP in autophagy-deficient cells; format: cell-based
Procedure: (§3) Wild-type, FIP200 and ATG13 KO HeLa cell lines were gifted from Dr. Jun-Lin Guan's lab (University of Cincinnati). Cells were cultured in DMEM supplemented 10% FBS and 100 U/mL penicillin-streptomycin (Gibco) in 5% CO2 incubator at 37° C.
(§4) Considering that ATG13 and FIP200 are essential proteins for autophagy, to further elucidate the relationship between autophagy and changes in level of Zn^2+ two stable knockout (KO) cell lines were obtained (ATG13 KO HeLa cells and FIP200 KO HeLa cells) via CRISPR/Cas9 gene editing technology.

FIP200 KO HeLa cells = assay: as above; format: cell-based
Procedure: as §3, §4

[7] = CCCP treatment, regions selected by morphology

limit of detection for Zn^2+ ([2]; 3 σ/slope method) [nM] | Kd ([2]; HEPES 50 mM, 100 mM KNO3, 10% DMSO, 10 mM EGTA, pH 7.21, read-out: dissociation constant (Kd) of the complex between Zn^2+ and NapBu-BPEA) [nM] | reversibility of fluorescence response on TPEN addition ([2]; Zn^2+ 10 μM then TPEN 10 μM, five on-off cycles) | emission enhancement on Zn^2+ titration ([2]; at 540 nm, 10 μM probe) [fold] | pH range of stable fluorescence response [3] | photobleaching (HeLa cells [1]; within 300 s of laser stimulation) | SMILES | fluorescence intensity remaining (HeLa cells [1]; after 120 s of laser stimulation) | fluorescence selectivity against other metal ions ([2]; 1000 eq K+, Na+, Ca2+, Mg2+, 1 eq other cations, response only to Cd^2+) | activity of lactate dehydrogenase released into the medium (HeLa cells [4]) | cell viability (HeLa cells [4]) | time until fluorescence intensity is balanced/stable after exogenous Zn^2+ (HeLa cells [5]; 50 μM ZnPT, images every 2 min) | reversibility of intracellular response (HeLa cells [5]; 100 μM TPEN added to cells) | green fluorescence intensity in mitophagic versus non-autophagic cells (HeLa cells [6]; CCCP 10 μM, 24 h, probe 10 μM, 1 h) [fold] | increase of Zn^2+ level (fluorescence intensity) in endoplasmic reticulum during autophagy (HeLa cells [6]; [7]) [fold] | increase of Zn^2+ level (fluorescence intensity) in mitochondria during autophagy (HeLa cells [6]; [7]) [fold] | fluorescence signal of CCCP-treated versus untreated cells (HeLa cells [6]; CCCP-induced mitophagy) | fluorescence intensity of EBSS-treated cells (HeLa cells [6]; EBSS starvation 24 h) | fluorescence intensity, CCCP-treated versus untreated (ATG13 KO HeLa cells) | fluorescence intensity, CCCP-treated versus untreated (FIP200 KO HeLa cells)
– | – | – | – | – | – | C[N+]1=C(/C=C/C=C/C=C2\N(Cc3ccc(CCl)cc3)c3ccccc3C2(C)C)C(C)(C)c2ccccc21.[Cl-] [MTDR, reference compound] | less than 30% | – | – | – | – | – | – | – | – | – | – | – | –
54.5 | 4.98 | favorable reversible response to Zn^2+ | 3.6 | 4-8 pH | negligible photobleaching | CCCCN1C(=O)c2cccc3c(NCCN(Cc4ccccn4)Cc4ccccn4)ccc(c23)C1=O [NapBu-BPEA, 2,4-(bis(pyridin-2-ylmethyl)aminoethyl)amino-N-n-butyl-1,8-naphthalimide] | – | specific fluorescence selectivity for Zn^2+ | less than 20% | exceeded 80% | 6 min and 4 min | respond reversibly to intracellular Zn^2+ | ~2.0 | 1.55 | 1.89 | improved significantly | decreased | no significant change in fluorescence intensity | no significant change in fluorescence intensity
